ChEMBL document CHEMBL2406981, “Novel pyrazoline amidoxime and their 1,2,4-oxadiazole analogues: synthesis and pharmacological screening” (Bioorg Med Chem Lett, 2013)
≈ marks a conversion by molar mass, not a printed value.

Test system: Aspergillus flavus
Test: Antimicrobial activity against Aspergillus flavus MTCC 873 at 100 ug/ml after 24 hrs by agar disc diffusion method
Assay type: functional
Conditions: MTCC 873, 24 h, read-out: DIZ
`COc1ccc(C2=NN(c3ccccc3)C(/C(N)=N/O)C2)cc1` (stereo unspecified) showed a zone of inhibition at 100 µg/mL of 10 mm.

Test system: not listed separately
Test: Antioxidant activity assessed as reducing power of ferric ion at 50 ug/ml after 20 mins
Assay type: functional
Parameters: scale not given: the % may be the effect or the level left
Conditions: not given
`COc1ccc(C2=NN(c3ccccc3)C(/C(N)=N/O)C2)cc1` (stereo unspecified) showed an Activity of 22%.

Test system: Bacillus cereus
Test: Antimicrobial activity against Bacillus cereus MTCC 8372 at 50 ug/ml after 24 hrs by agar disc diffusion method
Assay type: functional
Conditions: MTCC 8372, 24 h, read-out: DIZ
Work on `COc1ccc(C2=NN(c3ccccc3)C(/C(N)=N/O)C2)cc1` (stereo unspecified) yielded a zone of inhibition at 50 µg/mL of 4 mm.

Test system: Radical scavenging activity
Test: Antioxidant activity assessed as DPPH free radical scavenging activity at 100 ug/ml after 20 mins
Assay type: functional
Conditions: not given
`COc1ccc(C2=NN(c3ccccc3)C(/C(N)=N/O)C2)cc1` (stereo unspecified) showed an Activity of 55%.

Test system: Shigella flexneri
Test: Antimicrobial activity against Shigella flexneri MTCC 1457
Assay type: functional
Conditions: not given
Work on `COc1ccc(C2=NN(c3ccccc3)C(/C(N)=N/O)C2)cc1` (stereo unspecified) yielded an MIC of 25 µg/mL (≈ 80.6 µM).

Test system: Staphylococcus aureus
Test: Antimicrobial activity against Staphylococcus aureus MTCC 96 at 100 ug/ml after 24 hrs by agar disc diffusion method
Assay type: functional
Conditions: MTCC 96, 24 h, read-out: DIZ
With `COc1ccc(C2=NN(c3ccccc3)C(/C(N)=N/O)C2)cc1` (stereo unspecified) the zone of inhibition at 100 µg/mL was 12 mm.

Test system: Staphylococcus aureus
Test: Antimicrobial activity against Staphylococcus aureus MTCC 96
Assay type: functional
Conditions: not given
Molecule `COc1ccc(C2=NN(c3ccccc3)C(/C(N)=N/O)C2)cc1` (stereo unspecified) has an MIC of 50 µg/mL (≈ 161 µM).

Test system: Radical scavenging activity
Test: Antioxidant activity assessed as DPPH free radical scavenging activity at 50 ug/ml after 20 mins
Assay type: functional
Conditions: not given
In the case of `COc1ccc(C2=NN(c3ccccc3)C(/C(N)=N/O)C2)cc1` (stereo unspecified), the Activity is reported as 33%.

Test system: Shigella flexneri
Test: Antimicrobial activity against Shigella flexneri MTCC 1457 at 100 ug/ml after 24 hrs by agar disc diffusion method
Assay type: functional
Conditions: MTCC 1457, 24 h, read-out: DIZ
`COc1ccc(C2=NN(c3ccccc3)C(/C(N)=N/O)C2)cc1` (stereo unspecified) gave a zone of inhibition at 100 µg/mL of 10 mm.

Test system: Aspergillus niger
Test: Antimicrobial activity against Aspergillus niger MTCC 281 at 50 ug/ml after 24 hrs by agar disc diffusion method
Assay type: functional
Conditions: MTCC 281, 24 h, read-out: DIZ
For `COc1ccc(C2=NN(c3ccccc3)C(/C(N)=N/O)C2)cc1` (stereo unspecified), the zone of inhibition at 50 µg/mL was 10 mm.

Test system: Escherichia coli
Test: Antimicrobial activity against Escherichia coli MTCC 724
Assay type: functional
Conditions: not given
In the case of `COc1ccc(C2=NN(c3ccccc3)C(/C(N)=N/O)C2)cc1` (stereo unspecified), the MIC is reported as 55 µg/mL (≈ 177 µM).

Test system: Bacillus cereus
Test: Antimicrobial activity against Bacillus cereus MTCC 8372
Assay type: functional
Conditions: not given
`COc1ccc(C2=NN(c3ccccc3)C(/C(N)=N/O)C2)cc1` (stereo unspecified) gave an MIC of 35 µg/mL (≈ 113 µM).

Test system: Escherichia coli
Test: Antimicrobial activity against Escherichia coli MTCC 724 at 100 ug/ml after 24 hrs by agar disc diffusion method
Assay type: functional
Conditions: MTCC 724, 24 h, read-out: DIZ
`COc1ccc(C2=NN(c3ccccc3)C(/C(N)=N/O)C2)cc1` (stereo unspecified) gave a zone of inhibition at 100 µg/mL of 8 mm.

Test system: Klebsiella pneumoniae
Test: Antimicrobial activity against Klebsiella pneumoniae MTCC 3384
Assay type: functional
Conditions: not given
For `COc1ccc(C2=NN(c3ccccc3)C(/C(N)=N/O)C2)cc1` (stereo unspecified), the MIC was 25 µg/mL (≈ 80.6 µM).

Test system: Shigella flexneri
Test: Antimicrobial activity against Shigella flexneri MTCC 1457 at 50 ug/ml after 24 hrs by agar disc diffusion method
Assay type: functional
Conditions: MTCC 1457, 24 h, read-out: DIZ
`COc1ccc(C2=NN(c3ccccc3)C(/C(N)=N/O)C2)cc1` (stereo unspecified) gave a zone of inhibition at 50 µg/mL of 6 mm.

Test system: Klebsiella pneumoniae
Test: Antimicrobial activity against Klebsiella pneumoniae MTCC 3384 at 100 ug/ml after 24 hrs by agar disc diffusion method
Assay type: functional
Conditions: MTCC 3384, 24 h, read-out: DIZ
In the case of `COc1ccc(C2=NN(c3ccccc3)C(/C(N)=N/O)C2)cc1` (stereo unspecified), the zone of inhibition at 100 µg/mL is reported as 9 mm.

Test system: Klebsiella pneumoniae
Test: Antimicrobial activity against Klebsiella pneumoniae MTCC 3384 at 50 ug/ml after 24 hrs by agar disc diffusion method
Assay type: functional
Conditions: MTCC 3384, 24 h, read-out: DIZ
Molecule `COc1ccc(C2=NN(c3ccccc3)C(/C(N)=N/O)C2)cc1` (stereo unspecified) has a zone of inhibition at 50 µg/mL of 6 mm.

Test system: Aspergillus flavus
Test: Antimicrobial activity against Aspergillus flavus MTCC 873 at 50 ug/ml after 24 hrs by agar disc diffusion method
Assay type: functional
Conditions: MTCC 873, 24 h, read-out: DIZ
With `COc1ccc(C2=NN(c3ccccc3)C(/C(N)=N/O)C2)cc1` (stereo unspecified) the zone of inhibition at 50 µg/mL was 5 mm.

Test system: not listed separately
Test: Antioxidant activity assessed as reducing power of ferric ion at 100 ug/ml after 20 mins
Assay type: functional
Parameters: scale not given: the % may be the effect or the level left
Conditions: not given
`COc1ccc(C2=NN(c3ccccc3)C(/C(N)=N/O)C2)cc1` (stereo unspecified) gave an Activity of 62%.

Test system: Bacillus cereus
Test: Antimicrobial activity against Bacillus cereus MTCC 8372 at 100 ug/ml after 24 hrs by agar disc diffusion method
Assay type: functional
Conditions: MTCC 8372, 24 h, read-out: DIZ
`COc1ccc(C2=NN(c3ccccc3)C(/C(N)=N/O)C2)cc1` (stereo unspecified) showed a zone of inhibition at 100 µg/mL of 16 mm.

Test system: not listed separately
Test: Antioxidant activity assessed as reducing power of ferric ion at 10 ug/ml after 20 mins
Assay type: functional
Parameters: scale not given: the % may be the effect or the level left
Conditions: not given
`COc1ccc(C2=NN(c3ccccc3)C(/C(N)=N/O)C2)cc1` (stereo unspecified) showed an Activity of 10%.

Test system: not listed separately
Test: Antioxidant activity against ferric chloride-induced lipid peroxidation using egg lecithin at 100 ug/ml after 1 hr
Assay type: functional
Conditions: not given
With `COc1ccc(C2=NN(c3ccccc3)C(/C(N)=N/O)C2)cc1` (stereo unspecified) the inhibition was 14%.

Test system: not listed separately
Test: Antioxidant activity against ferric chloride-induced lipid peroxidation using egg lecithin at 10 ug/ml after 1 hr
Assay type: functional
Conditions: not given
Molecule `COc1ccc(C2=NN(c3ccccc3)C(/C(N)=N/O)C2)cc1` (stereo unspecified) has an inhibition of 10%.

Test system: Radical scavenging activity
Test: Antioxidant activity assessed as DPPH free radical scavenging activity at 10 ug/ml after 20 mins
Assay type: functional
Conditions: not given
`COc1ccc(C2=NN(c3ccccc3)C(/C(N)=N/O)C2)cc1` (stereo unspecified) gave an Activity of 18%.

Test system: Aspergillus niger
Test: Antimicrobial activity against Aspergillus niger MTCC 281 at 100 ug/ml after 24 hrs by agar disc diffusion method
Assay type: functional
Conditions: MTCC 281, 24 h, read-out: DIZ
Work on `COc1ccc(C2=NN(c3ccccc3)C(/C(N)=N/O)C2)cc1` (stereo unspecified) yielded a zone of inhibition at 100 µg/mL of 12 mm.

Test system: Aspergillus niger
Test: Antimicrobial activity against Aspergillus niger MTCC 281
Assay type: functional
Conditions: not given
With `COc1ccc(C2=NN(c3ccccc3)C(/C(N)=N/O)C2)cc1` (stereo unspecified) the MIC was 15 µg/mL (≈ 48.3 µM).

Test system: Escherichia coli
Test: Antimicrobial activity against Escherichia coli MTCC 724 at 50 ug/ml after 24 hrs by agar disc diffusion method
Assay type: functional
Conditions: MTCC 724, 24 h, read-out: DIZ
Work on `COc1ccc(C2=NN(c3ccccc3)C(/C(N)=N/O)C2)cc1` (stereo unspecified) yielded a zone of inhibition at 50 µg/mL of 3 mm.

Test system: not listed separately
Test: Antiinflammatory activity against heat-induced albumin denaturation at […] preincubated for 15 mins before heat induction by UV-vis spectrophotometer analysis
Assay type: functional
Conditions: not given
With `COc1ccc(C2=NN(c3ccccc3)C(/C(N)=N/O)C2)cc1` (stereo unspecified) the inhibition was 23.8%.

Test system: not listed separately
Test: Antioxidant activity against ferric chloride-induced lipid peroxidation using egg lecithin at 50 ug/ml after 1 hr
Assay type: functional
Conditions: not given
`COc1ccc(C2=NN(c3ccccc3)C(/C(N)=N/O)C2)cc1` (stereo unspecified) showed an inhibition of 16%.

Test system: Aspergillus flavus
Test: Antimicrobial activity against Aspergillus flavus MTCC 873
Assay type: functional
Conditions: not given
In the case of `COc1ccc(C2=NN(c3ccccc3)C(/C(N)=N/O)C2)cc1` (stereo unspecified), the MIC is reported as 30 µg/mL (≈ 96.7 µM).

Test system: Staphylococcus aureus
Test: Antimicrobial activity against Staphylococcus aureus MTCC 96 at 50 ug/ml after 24 hrs by agar disc diffusion method
Assay type: functional
Conditions: MTCC 96, 24 h, read-out: DIZ
For `COc1ccc(C2=NN(c3ccccc3)C(/C(N)=N/O)C2)cc1` (stereo unspecified), the zone of inhibition at 50 µg/mL was 2 mm.
